Assay results from US20040044000A1, “Isoquinoline derivatives as matrix metalloproteinase inhibitors” (priority 2002, published 2004).

Target: T1, MMP-13 catalytic domain (MMP-13CD) (Homo sapiens, UniProt P45452)
T1 construct: use the catalytic domain of the MMP-13 enzyme, namely matrix metalloproteinase-13 catalytic domain (“MMP-13CD”), rather than the corresponding full-length enzyme
Test: Inhibition of MMP-13 catalytic domain (thiopeptolide substrate hydrolysis)
Assay type: biochemical
Conditions: Biological Table 1; read-out: MMP-13CD IC50
Text: The assays measure the amount by which a test compound reduces the hydrolysis of a thiopeptolide substrate catalyzed by a matrix metalloproteinase enzyme. Such assays are described in detail by Ye et al., in Biochemistry, 1992;31(45):11231-11235, which is incorporated herein by reference. One such assay is described below in Biological Method 1.
Some of the particular methods described below use the catalytic domain of the MMP-13 enzyme, namely matrix metalloproteinase-13 catalytic domain (“MMP-13CD”), rather than the corresponding full-length enzyme, MMP-13. It has been shown previously by Ye Qi-Zhuang, Hupe D., and Johnson L. (Current Medicinal Chemistry, 1996;3:407-418) that inhibitor activity against a catalytic domain of an MMP is predictive of the inhibitor activity against the respective full-length MMP enzyme.
Thiopeptolide substrates show virtually no decomposition or hydrolysis at or below neutral pH in the absence of a matrix metalloproteinase enzyme. A typical thiopeptolide substrate commonly utilized for assays is Ac-Pro-Leu-Gly-thioester-Leu-Leu-Gly-OEt. A 100 μL assay mixture will contain 50 mM of N-2-hydroxyethylpiperazine-N′-2-ethanesulfonic acid buffer (“HEPES,” pH 7.0), 10 mM CaCl2, 100 μM thiopeptolide substrate, and 1 mM 5,5′-dithio-bis-(2-nitro-benzoic acid) (DTNB). The thiopeptolide substrate concentration may be varied, for example from 10 to 800 μM to obtain Km and Kcat values. The change in absorbance at 405 nm is monitored on a Thermo Max microplate reader (molecular Devices, Menlo Park, Calif.) at room temperature (22° C.). The calculation of the amount of hydrolysis of the thiopeptolide substrate is based on E412=13600 M^−1 cm^−1 for the DTNB-derived product 3-carboxy-4-nitrothiophenoxide. Assays are carried out with and without matrix metalloproteinase inhibitor compounds, and the amount of hydrolysis is compared for a determination of inhibitory activity of the test compounds.
Test compounds were evaluated at various concentrations in order to determine their respective IC50 values, the micromolar concentration of compound required to cause a 50% inhibition of catalytic activity of the respective enzyme.

| SMILES | IC50 [µM] |
| --- | --- |
| O=C(NCc1ccco1)c1ccc2ccn(Cc3ccc(-c4nn[nH]n4)cc3)c(=O)c2c1 [Example 62, 1-oxo-2-[4-(2H-tetrazol-5-yl)benzyl]-1,2-dihydroisoquinoline-7-carboxylic Acid (furan-2-ylmethyl)amide] | 12 |
| CS(=O)(=O)c1ccc(Cn2ccc3ccc(C(=O)NCc4cncnc4)cc3c2=O)cc1 [Example 54, 2-(4-methane-sulfonylbenzyl)-1-oxo-1,2-dihydro-isoquinoline-7-carboxylic Acid (pyrimidin-5-ylmethyl)amide] | 35 |
| COc1ccc(CNC(=O)c2ccc3ccn(CCOc4ccccc4)c(=O)c3c2)cc1 [Example 44, 1-oxo-2-(2-phenoxyethyl)-1,2-dihydroisoquinoline-7-carboxylic Acid 4-methoxybenzylamide] | 7.5 |
| CS(=O)(=O)c1ccc(Cn2ccc3ccc(C(=O)NCc4cccnc4)cc3c2=O)cc1 [Example 50, 2-(4-methane-sulfonylbenzyl)-1-oxo-1,2-dihydro-isoquinoline-7-carboxylic Acid (pyridin-3-ylmethyl)amide] | 7.4 |
| Cc1ccc(CNC(=O)c2ccc3ccn(Cc4ccc(S(C)(=O)=O)cc4)c(=O)c3c2)cc1 [Example 55, 2-(4-methane-sulfonylbenzyl)-1-oxo-1,2-dihydro-isoquinoline-7-carboxylic Acid 4-methylbenzyl-amide] | > 30 |

Further lines, results first:

| IC50 [µM] | SMILES |
| --- | --- |
| 1.2 | COc1cccc(CNC(=O)c2ccc3ccn(CCOc4ccccc4)c(=O)c3c2)c1 [Example 45, 1-oxo-2-(2-phenoxyethyl)-1,2-dihydroisoquinoline-7-carboxylic Acid 3-methoxybenzylamide] |
| 3.8 | COc1cc(CNC(=O)c2ccc3ccn(CCOc4ccccc4)c(=O)c3c2)ccn1 [Example 43, 1-oxo-2-(2-phenoxyethyl)-1,2-dihydroisoquinoline-7-carboxylic Acid (2-methoxypyridin-4-ylmethyl)amide] |
| 3.1 | CS(=O)(=O)c1ccc(Cn2ccc3ccc(C(=O)NCc4ccncc4)cc3c2=O)cc1 [Example 49, 2-(4-methanesulfonylbenzyl)-1-oxo-1,2-dihydroisoquinoline-7-carboxylic Acid (pyridin-4-ylmethyl)amide] |
| 26 | O=C(NCc1ccncc1)c1ccc2ccn(CCOc3ccccc3)c(=O)c2c1 [Example 41, 1-oxo-2-(2-phenoxyethyl)-1,2-dihydroisoquinoline-7-carboxylic Acid (pyridin-4-ylmethyl)amide] |

Same assay, conditions: Biological Table 2, compounds of Example 66; read-out: MMP-13CD IC50

| SMILES | IC50 [µM] |
| --- | --- |
| O=c1c2cc(C#CCc3ccccc3)ccc2ccn1CCC1OCCO1 [Example 66m, 2-(2-1,3-Dioxolan-2-yl-ethyl)-7-(3-phenyl-prop-1-ynyl)-2H-isoquinolin-1-one] | 24 |
| O=c1c2cc(C#CCc3ccccc3)ccc2ccn1CC1CCCO1 (stereo not drawn) [Example 66i, 7-(3-Phenyl-prop-1-ynyl)-2-(tetrahydro-furan-2-ylmethyl)-2H-isoquinolin-1-one] | 13 |
| N#CCCn1ccc2ccc(C#CCc3ccccc3)cc2c1=O [Example 66d, 3-[1-Oxo-7-(3-phenyl-prop-1-ynyl)-1H-isoquinolin-2-yl]-propionitrile] | 4.8 |
| COC(=O)CCCCn1ccc2ccc(C#CCc3ccccc3)cc2c1=O [Example 66p, 5-[1-Oxo-7-(3-phenyl-prop-1-ynyl)-1H-isoquinolin-2-yl]-pentanoic acid methyl ester] | 9.4 |
| CCOC(=O)CCCn1ccc2ccc(C#CCc3ccccc3)cc2c1=O [Example 66aa, 4-[1-Oxo-7-(3-phenyl-prop-1-ynyl)-1H-isoquinolin-2-yl]-butyric acid ethyl ester] | 12 |
| N#CCCCCCn1ccc2ccc(C#CCc3ccccc3)cc2c1=O [Example 66af, 6-[1-Oxo-7-(3-phenyl-prop-1-ynyl)-1H-isoquinolin-2-yl]-hexanenitrile] | 8.6 |
| COc1ccc2nc(Cn3ccc4ccc(C#CCc5ccccc5)cc4c3=O)c(=O)oc2c1 [Example 66u, 7-Methoxy-3-[1-oxo-7-(3-phenyl-prop-1-ynyl)-1H-isoquinolin-2-ylmethyl]-1,4-benzoxazin-2-one] | 11 |
| COCCn1ccc2ccc(C#CCc3ccccc3)cc2c1=O [Example 66w, 2-(2-Methoxy-ethyl)-7-(3-phenyl-prop-1-ynyl)-2H-isoquinolin-1-one] | > 30 |
| O=c1c2cc(C#CCc3ccccc3)ccc2ccn1CCC1OCCCO1 [Example 66f, 2-(2-1,3-Dioxinan-2-yl-ethyl)-7-(3-phenyl-prop-1-ynyl)-2H-isoquinolin-1-one] | > 30 |
| O=c1c2cc(C#CCc3ccccc3)ccc2ccn1CCCCCCO [Example 66ac, 2-(6-Hydroxy-hexyl)-7-(3-phenyl-prop-1-ynyl)-2H-isoquinolin-1-one] | 7.1 |
| O=c1c2cc(C#CCc3ccccc3)ccc2ccn1CCCC(F)(F)F [Example 66ai, 7-(3-Phenyl-prop-1-ynyl)-2-(4,4,4-trifluoro-butyl)-2H-isoquinolin-1-one] | 14 |

The remaining lines, values ahead:

| IC50 [µM] | SMILES |
| --- | --- |
| 11 | N#CCCCCn1ccc2ccc(C#CCc3ccccc3)cc2c1=O [Example 66j, 5-[1-Oxo-7-(3-phenyl-prop-1-ynyl)-1H-isoquinolin-2-yl]-pentanenitrile] |
| 1.9 | O=c1c2cc(C#CCc3ccccc3)ccc2ccn1Cc1ccccc1 [Example 66ag, 2-Benzyl-7-(3-phenyl-prop-1-ynyl)-2H-isoquinolin-1-one] |
| 8.7 | CCOC(=O)CCCCn1ccc2ccc(C#CCc3ccccc3)cc2c1=O [Example 66s, 5-[1-Oxo-7-(3-phenyl-prop-1-ynyl)-1H-isoquinolin-2-yl]-pentanoic acid ethyl ester] |
| 33 | CCOC(Cn1ccc2ccc(C#CCc3ccccc3)cc2c1=O)OCC [Example 66r, 2-(2,2-Diethoxy-ethyl)-7-(3-phenyl-prop-1-ynyl)-2H-isoquinolin-1-one] |
| 24 | O=c1c2cc(C#CCc3ccccc3)ccc2ccn1CC(F)(F)F [Example 66ah, 7-(3-Phenyl-prop-1-ynyl)-2-(2,2,2-trifluoro-ethyl)-2H-isoquinolin-1-one] |
| > 100 | COC(=O)CCn1ccc2ccc(C#CCc3ccccc3)cc2c1=O [Example 66k, 3-[1-Oxo-7-(3-phenyl-prop-1-ynyl)-1H-isoquinolin-2-yl]-propionic acid methyl ester] |
| > 100 | O=c1c2cc(C#CCc3ccccc3)ccc2ccn1CC[S+]([O-])c1ccccc1 (stereo not drawn) [Example 66z, 2-(2-Benzenesulfinyl-ethyl)-7-(3-phenyl-prop-1-ynyl)-2H-isoquinolin-1-one] |
| 11 | CCOC(=O)Cn1ccc2ccc(C#CCc3ccccc3)cc2c1=O [Example 66x, [1-Oxo-7-(3-phenyl-prop-1-ynyl)-1H-isoquinolin-2-yl]-acetic acid ethyl ester] |
| 20 | O=c1c2cc(C#CCc3ccccc3)ccc2ccn1CS(=O)(=O)c1ccccc1 [Example 66ad, 2-Benzenesulfonylmethyl-7-(3-phenyl-prop-1-ynyl)-2H-isoquinolin-1-one] |
| 8.7 | CCOC(=O)CCCCCn1ccc2ccc(C#CCc3ccccc3)cc2c1=O [Example 66v, 6-[1-Oxo-7-(3-phenyl-prop-1-ynyl)-1H-isoquinolin-2-yl]-hexanoic acid ethyl ester] |
| 22.5 | N#CCCCn1ccc2ccc(C#CCc3ccccc3)cc2c1=O [Example 66c, 4-[1-Oxo-7-(3-phenyl-prop-1-ynyl)-1H-isoquinolin-2-yl]-butyronitrile] |
| 95 | CS(=O)(=O)c1ccc(Cn2ccc3ccc(C#CCc4ccccc4)cc3c2=O)cc1 [Example 66o, 2-(4-Methanesulfonyl-benzyl)-7-(3-phenyl-prop-1-ynyl)-2H-isoquinolin-1-one] |
| 12 | CCC(=O)Cn1ccc2ccc(C#CCc3ccccc3)cc2c1=O [Example 66ab, 2-(2-Oxo-butyl)-7-(3-phenyl-prop-1-ynyl)-2H-isoquinolin-1-one] |

Same assay, conditions: hMMP-13CD, text b731; read-out: IC50 with hMMP-13CD

| SMILES | IC50 [µM] |
| --- | --- |
| O=C(O)c1ccc(Cn2ccc3ccc(C#CCn4ccnn4)cc3c2=O)cc1 [4-[1-oxo-7-(3-[1,2,3]triazol-1-ylprop-1-ynyl)-1H-isoquinolin-2-ylmethyl]benzoic acid] | > 50 |

Same assay, conditions: read-out: IC50 with MMP-13 catalytic domain

| SMILES | IC50 [µM] |
| --- | --- |
| NS(=O)(=O)c1ccc(Cn2ccc3ccc(C#CCc4ccccc4)cc3c2=O)cc1 [Example 5, 4-[1-Oxo-7-(3-phenyl-prop-1-ynyl)-1H-isoquinolin-2-ylmethyl]benzenesulfonamide] | 0.036 |
| O=C(O)c1ccc(Cn2ccc3ccc(C#CCn4ccnc4)cc3c2=O)cc1 [Example 13, 4-[7-(3-Imidazol-1-ylprop-1-ynyl)-1-oxo-1H-isoquinolin-2-ylmethyl]benzoic Acid] | 0.0089 |
